Data set [1] can be described thus: Solubility of solid state racemic tamsulosin free base precipitates (qualitative). Type of data set: physicochemical. The conditions noted are these: relatively pure precipitate. From the text: The typical starting tamsulosin substrate, namely racemic tamsulosin free base in solid state, is not formed in the prior art per se. The present invention is based in part on the discovery that the racemic free base can be formed and isolated in the solid state. Preferably the solid state form is a precipitate from a solution. More preferably, the solid state form is a crystalline form. The crystalline form includes all polymorphic modifications, unless otherwise noted and includes hydrates and solvates thereof. In particular, two polymorphic forms of solid state racemic tamsulosin free base, designated as Form 1 and Form 2, have now been discovered as part of the present invention and are described hereinafter. The solid state racemic free base can be isolated in high purity, including at least 80% purity, more preferably at least 90% purity, still more preferably at least 95% purity.

Data set [2] is described as follows: Water solubility of amine (5) observed during alkaline extraction. The format is physicochemical. The conditions noted are these: free base, normal alkaline extraction gave too high a loss. From the text: It has now been discovered that the so obtained free base of (5) is contaminated by side-products and should be purified for the next step. […] It has been discovered that an effective way to purify the amine is to form a sulfonic acid salt of the amine, especially methane sulfonate or tosylate. The salt, particularly the methane sulfonate salt of (5), may be isolated in solid, preferably crystalline state by conventional methods and may be used as an advantageous substrate in the next reaction step. The conversion of the free base of (5) into an acid addition salt and isolation of the salt in solid state enhances the purity of the compound (5), particularly it removes side products that resulted from hydrogenation such as 2-ethoxyphenyl. The 2-(o-ethoxyphenoxy)ethylamine methane sulfonate thus forms a specific aspect of this invention.

In the case of `CCOc1ccccc1OCCNC(C)Cc1ccc(OC)c(S(N)(=O)=O)c1` (racemic) [racemic tamsulosin free base, (R,S)-5-[2-[[2-(2-ethoxyphenoxy)ethyl]amino]propyl]-2-methoxybenzene-sulfonamide], the solubility in alcohols entry in data set [1] (alcohols such as methanol and ethanol) is recorded as “soluble”. In addition, in data set [1] (chlorinated hydrocarbons), the “solubility in chlorinated hydrocarbons” value is reported as “soluble”. In addition, the solubility in water entry in data set [1] (water) is listed as “sparingly soluble”.
With `CCOc1ccccc1OCCN` [amine (5), 2-(o-ethoxyphenoxy)ethylamine], in data set [2], the water solubility result is “unexpectedly high”.
